Source: the NIST ThermoML archive (doi:10.1016/j.jct.2008.12.004)

Experiment: excess molar enthalpy (molar enthalpy of mixing); xn = mol fraction of the nth substance listed
Conditions: 101 kPa, Liquid, Flow calorimetry

C1CCCCC1 [cyclohexane] + Cc1ccccc1
excess molar enthalpy [kcal/mol]
Conditions	298.15 K	313.15 K
x1 = 0.0491	–	0.0248
x1 = 0.0492	0.0263	–
x1 = 0.1003	–	0.0482
x1 = 0.1004	0.051	–
x1 = 0.1496	–	0.0686
x1 = 0.1497	0.0728	–
x1 = 0.199	–	0.0861
x1 = 0.1991	0.091	–
x1 = 0.2485	–	0.101
x1 = 0.2486	0.108	–
x1 = 0.298	–	0.115
x1 = 0.2981	0.121	–
x1 = 0.3477	–	0.125
x1 = 0.3479	0.132	–
x1 = 0.3974	–	0.134
x1 = 0.3976	0.141	–
x1 = 0.4493	0.147	0.139
x1 = 0.4992	0.149	0.142
x1 = 0.5493	0.149	0.142
x1 = 0.5974	–	0.139
x1 = 0.5975	0.147	–
x1 = 0.6476	–	0.134
x1 = 0.6478	0.141	–
x1 = 0.6979	–	0.125
x1 = 0.6981	0.131	–
x1 = 0.7483	–	0.113
x1 = 0.7485	0.118	–
x1 = 0.7989	–	0.0978
x1 = 0.799	0.103	–
x1 = 0.8496	0.0828	0.0788
x1 = 0.9003	0.0585	0.0562
x1 = 0.9491	0.0319	0.0304
x1 = 1	0	0

CCOC(C)(C)C [2-ethoxy-2-methylpropane] + Cc1ccccc1
excess molar enthalpy [kcal/mol]
Conditions	298.15 K	313.15 K
x1 = 0.0248	-0.000932	–
x1 = 0.0491	-0.00174	–
x1 = 0.0499	–	-0.000793
x1 = 0.0739	-0.00261	–
x1 = 0.0997	–	-0.00129
x1 = 0.1003	-0.00356	–
x1 = 0.1498	-0.00507	–
x1 = 0.151	–	-0.00222
x1 = 0.1991	-0.00657	–
x1 = 0.2004	–	-0.00298
x1 = 0.2489	-0.00774	–
x1 = 0.2511	–	-0.00405
x1 = 0.2993	-0.00887	–
x1 = 0.2998	–	-0.00479
x1 = 0.3499	–	-0.00517
x1 = 0.3513	-0.00968	–
x1 = 0.3987	-0.0103	–
x1 = 0.4011	–	-0.00591
x1 = 0.4495	-0.0108	–
x1 = 0.45	–	-0.00608
x1 = 0.5003	–	-0.0065
x1 = 0.5019	-0.011	–
x1 = 0.5499	–	-0.00634
x1 = 0.5515	-0.0109	–
x1 = 0.599	-0.0108	–
x1 = 0.6007	–	-0.00599
x1 = 0.6491	-0.0102	–
x1 = 0.6506	–	-0.00587
x1 = 0.6996	–	-0.00548
x1 = 0.7014	-0.00946	–
x1 = 0.7495	-0.00832	–
x1 = 0.7498	–	-0.00491
x1 = 0.801	-0.007	–
x1 = 0.8013	–	-0.00411
x1 = 0.8492	–	-0.00341
x1 = 0.8514	-0.00531	–
x1 = 0.9006	-0.00361	–
x1 = 0.9008	–	-0.0024
x1 = 0.951	-0.00172	–
x1 = 0.9511	–	-0.00144
x1 = 1	0	0
